The values below come from ChEMBL document CHEMBL1142653, “In silico prediction of membrane permeability from calculated molecular parameters” (J Med Chem, 2005).

The nature of data set [1]: Apparent permeability of the compound was determined in MDCK (madin darby canine kidney) strain I; Activity = Papp 10e-6. It counts as ADME, Canis lupus familiaris. The settings on record: dog.
The nature of data set [2]: Apparent permeability of the compound was determined inCaco-2 (human colon carcinoma) cells; Activity = Papp 10E-6. It counts as ADME. The settings on record: Caco-2. (Caco-2 cells form a polarised layer with tight junctions and transporters.)

A word on the Papp: it is a coefficient for how fast a substance crosses the barrier. With `COCCc1ccc(OCC(O)CNC(C)C)cc1` (stereo unspecified) [METOPROLOL], the figures for the Papp in data set [1] and in data set [2] were 37.8 ×10⁻⁶ cm/s and 18.2 ×10⁻⁶ cm/s, respectively. For the compound `CN/C(=C\[N+](=O)[O-])NCCSCc1ccc(CN(C)C)o1` [RANITIDINE], the Papp in data set [1] was determined as 0.27 ×10⁻⁶ cm/s. Consider `O=C(N[C@H](CO)[C@H](O)c1ccc([N+](=O)[O-])cc1)C(Cl)Cl` [CHLORAMPHENICOL], for which the Papp in data set [1] is 3.15 ×10⁻⁶ cm/s. On to `CC(C)NCC(O)COc1cccc2ccccc12` (stereo unspecified) [PROPRANOLOL], for which the Papp was 34.4 ×10⁻⁶ cm/s in data set [1] and 12.6 ×10⁻⁶ cm/s in data set [2].
